Reference: patent US20050238642A1, “Modified bouganin proteins, cytotoxins and methods and uses thereof” (priority 2004, published 2005)

Test system: PBMCs (peripheral blood mononuclear cells) from naive donors
Experiment: Naive human T-cell proliferation assay (3H-thymidine incorporation, stimulation index)
Type: cell-based
Conditions: compilation of 20 donors, 1 μM and 5 μM
Procedure: Accordingly, in the present studies, 89 synthetic 15-mer peptides (as listed in Table 1) were used in T-cell proliferation assays with PBMCs (peripheral blood mononuclear cells) from naive donors (i.e. no known sensitization to bouganin). 20 donor PBMC samples were selected to achieve an optimal coverage of MHC class II allotypes. PBMCs were stimulated with individual peptides in triplicate cultures for 7 days before proliferation was assessed by ^3H-thymidine incorporation. All peptides were diluted at two different concentrations: 1 μM and 5 μM. The stimulation indices (SI) were calculated as the amount of ^3H incorporated into the cells, divided by the amount of ^3H incorporated in mock-stimulated controls.
The peptides were used in T-cell proliferation assays with PBMCs (peripheral blood mononuclear cells) from naive donors (i.e. no known sensitization to bouganin). 20 donor PBMC were selected to get an optimal coverage of MHC class II allotypes. The allotypic coverage is in excess of 85%.
PBMCs were stimulated with individual peptides in triplicate cultures for 7 days before proliferation was assessed by ^3H-thymidine (^3H-Thy) incorporation. All peptides were tested at two different concentrations (1 μM and 5 μM). Stimulation indices (S.I.) were calculated as the amount of ^3H incorporated, divided by the amount of ^3H incorporated in mock-stimulated control cells.
Buffy coats from human blood stored for less than 12 hours were obtained from the National Blood Service (Addenbrooks Hospital, Cambridge, UK). Ficoll-paque was obtained from Amersham Pharmacia Biotech (Amersham, UK). Serum free AIM V media for the culture of primary human lymphocytes and containing L-glutamine, 50 μg/ml streptomycin, 10 μg/ml gentomycin and 0.1% human serum albumin was from Gibco-BRL (Paisley, UK). Synthetic peptides were obtained from Eurosequence (Groningen, The Netherlands) and Babraham Technix (Cambridge, UK).
Erythrocytes and leukocytes were separated from plasma and platelets by gentle centrifugation of buffy coats. The top phase (containing plasma and platelets) was removed and discarded. Erythrocytes and leukocytes were diluted 1:1 in phosphate buffered saline (PBS) before layering onto 15 ml ficoll-paque (Amersham Pharmacia, Amersham UK). Centrifugation was done according to the manufacturers recommended conditions and PBMCs were harvested from the serum+PBS/ficoll paque interface. PBMCs were mixed with PBS (1:1) and collected by centrifugation. The supernatant was removed and discarded and the PBMC pellet resuspended in 50ml PBS. Cells were again pelleted by centrifugation and the PBS supernatant discarded. Cells were resuspended using 50 ml AIM V media and at this point counted and viability assessed using trypan blue dye exclusion. Cells were again collected by centrifugation and the supernatant discarded. Cells were resuspended for cryogenic storage at a density of 3×10^7 per ml. The storage medium was 90% (v/v) heat inactivated AB human serum (Sigma, Poole, UK) and 10% (v/v) DMSO (Sigma, Poole, UK). Cells were transferred to a regulated freezing container (Sigma) and placed at −70° C. overnight. When required for use, cells were thawed rapidly in a water bath at 37° C. before transferring to 10ml pre-warmed AIM V medium.
PBMC were stimulated with protein and peptide antigens in a 96 well flat bottom plate at a density of 2×10^5 PBMC per well. PBMC were incubated for 7 days at 37° C. before pulsing with ^3H-Thy (Amersham-Pharmacia, Amersham, UK). […] C-32=sequence […] from Flu haemagglutinin residues 307-319 (SEQ ID NO:127). C-49=sequence […] from Chlamydia HSP 60 (SEQ ID NO:128).
Peptides were dissolved in DMSO to a final concentration of 10 mM, these stock solutions were then diluted 1/500 in AIM V media (final concentration 20 μM). Peptides were added to a flat bottom 96 well plate to give a final concentration of 1 and 5 μM in 100 μl. […]

Substance	presence of T cell epitope
AKVDRKDLELGVYKL [peptide 41, bouganin 15-mer peptide, first amino acid 121]	T cell epitopes
IVEDLDGDELEILEP [peptide 88, 15-mer peptide of the unprocessed form of bouganin, first amino acid 261]	T cell epitopes

Same assay, conditions: donor 4, peptide at 5 μM

Substance	S.I. (stimulation index)
AKVDRKDLELGVYKL [peptide 41, bouganin 15-mer peptide, first amino acid 121]	3.6

Same assay, conditions: donor 5, peptide at 5 μM

Substance	S.I. (stimulation index)
AKVDRKDLELGVYKL [peptide 41, bouganin 15-mer peptide, first amino acid 121]	4.9

Same assay, conditions: donor 10, peptide at 5 μM

Substance	S.I. (stimulation index)
AKVDRKDLELGVYKL [peptide 41, bouganin 15-mer peptide, first amino acid 121]	2.1

Same assay, conditions: donor 11, peptide at 5 μM

Substance	S.I. (stimulation index)
AKVDRKDLELGVYKL [peptide 41, bouganin 15-mer peptide, first amino acid 121]	2.0

Same assay, conditions: of 20 donor PBMC samples

Substance	responsive donors
AKVDRKDLELGVYKL [peptide 41, bouganin 15-mer peptide, first amino acid 121]	four

Test system: cell-free protein synthesis
Experiment: Cell-free protein synthesis assay (luciferase, coupled transcription/translation)
Type: biochemical
Set-up: key to Activity in luciferase assay: ++: same or higher than WT protein.; +: within 2-fold of WT activity.; +/−: within 3-fold of WT activity.; −−: less than one-third of WT activity
Conditions: multiple substitution variants, relative to wild-type protein
Excerpt: The term “biological activity” as used herein is the ability of the modified or non-modified bouganin protein to inhibit protein synthesis on ribosomes, which can be assessed in a number of ways. It should be noted that a modified bouganin protein will still have biological activity even if such activity is lower than that of the non-modified protein, however it would need to have some level of detectable activity. For example, the biological activity of the modified or non-modified bouganin protein can be assessed by identifying their N-glycosidase activity, and in particular with sufficient activity to provide significant inhibition of protein translation. One such suitable assay involves testing the activity of the variant bouganin proteins in comparison to non-modified bouganin in a cell-free protein synthesis assay. A coupled transcription/translation mix containing methionine, DNA encoding the reporter protein luciferase and serial dilutions of non-modified and modified bouganin protein are co-incubated. The levels of translated luciferase are readily detected using a luminescence counter following addition of a substrate reagent. The measured luminescence is inversely proportional to the bouganin N-glycosidase activity present in the reaction. It is usual to provide a negative control such as an in-active bouganin protein, for example containing a Y70A substitution.
The biological activity of the proteins of the invention can equally be assessed in many ways. In one embodiment, modified bouganin molecules are identified with N-glycosidase activity, and in particular with sufficient activity to provide significant inhibition of protein translation. One such suitable assay involves testing the activity of the modified bouganin proteins in comparison to non-modified bouganin in a cell-free protein synthesis assay. A coupled transcription/translation mix containing methionine, DNA encoding the reporter protein luciferase and serial dilutions of non-modified and modified bouganin proteins are co-incubated. The levels of translated luciferase are readily detected using a luminescence counter following addition of a substrate reagent. The measured luminescence is inversely proportional to the bouganin N-glycosidase activity present in the reaction. It is usual to provide a negative control such as an in-active bouganin protein for example containing a Y70A substitution.
The activity of the wild-type and modified (mutant) bouganin proteins was tested by measuring their ability to inhibit protein synthesis in a cell-free protein synthesis assay.
A mixture of 10 μl TNT Coupled Transcription/Translation mix (Promega), 20 […] methionine, 120 ng pT7 luciferase DNA (Promega) and serial dilutions of WT and mutant bouganin protein in a final volume of 12.5 μl were incubated at 30° C. for one hour, after which the reaction was stopped by addition of 100 μl “SteadyGlow” luciferase assay reagent (Promega). The luciferase activity was measured using a Wallac luminescence counter. Active bouganin protein is detected as a decrease in measured luciferase activity. Each modified bouganin protein was tested in at least 5 concentrations, with each data point in duplicate. Positive and negative controls were included in each experiment.
In each instance results are expressed relative to wild-type protein activity.

Substance	Activity in luciferase assay
Bou156: modified bouganin with V123A, D127A, Y133N, I152A (SEQ ID No 13)	++
Bou157: modified bouganin with V123A, D127A, Y133Q, I152A (SEQ ID No 14)	++

Same assay, conditions: single substitution variants, relative to wild-type protein

Substance	Activity in luciferase assay
I158P: modified bouganin protein with substitution I158P	−−
V123A: modified bouganin protein with substitution V123A	++
Y133S: modified bouganin protein with substitution Y133S	++
Y133T: modified bouganin protein with substitution Y133T	++
E129G: modified bouganin protein with substitution E129G	++
V123R: modified bouganin protein with substitution V123R	−−
Y133Q: modified bouganin protein with substitution Y133Q	++
E151T I152E	−−
Y133K: modified bouganin protein with substitution Y133K	++
I152E: modified bouganin protein with substitution I152E	−−
E129Q: modified bouganin protein with substitution E129Q	+/− (within 3-fold of WT activity.)
V123N: modified bouganin protein with substitution V123N	−−
Y133E: modified bouganin protein with substitution Y133E	+/− (within 3-fold of WT activity.)
V123T: modified bouganin protein with substitution V123T	+/− (within 3-fold of WT activity.)
I152A: modified bouganin protein with substitution I152A	++
V123P: modified bouganin protein with substitution V123P	−−
V123E: modified bouganin protein with substitution V123E	−−
V123D: modified bouganin protein with substitution V123D	−−
Y133G: modified bouganin protein with substitution Y133G	++

Substance	Activity in luciferase assay
I152Q: modified bouganin protein with substitution I152Q	++
Y70A: inactive bouganin with Y70A substitution, negative control (SEQ ID NO. 129) [reference compound]	−−
V123G: modified bouganin protein with substitution V123G	−−
V123K: modified bouganin protein with substitution V123K	−−
F155P: modified bouganin protein with substitution F155P	−−
E129R: modified bouganin protein with substitution E129R	−−
E129K: modified bouganin protein with substitution E129K	−−
Y133H: modified bouganin protein with substitution Y133H	++
Y133P: modified bouganin protein with substitution Y133P	−−
Y133A: modified bouganin protein with substitution Y133A	++
D127A: modified bouganin protein with substitution D127A	++
D127G: modified bouganin protein with substitution D127G	++
V123H: modified bouganin protein with substitution V123H	−−
V123S: modified bouganin protein with substitution V123S	−−
Y133R: modified bouganin protein with substitution Y133R	++
F155H: modified bouganin protein with substitution F155H	−−
V123Q: modified bouganin protein with substitution V123Q	++
Y133D: modified bouganin protein with substitution Y133D	++
Y133N: modified bouganin protein with substitution Y133N	++

Same assay, conditions: when conjugated to the Fab fragment (FIG. 12)

Substance	potency in cell-free assay
Bou156: modified bouganin with V123A, D127A, Y133N, I152A (SEQ ID No 13)	retained its potency
